Test results published in patent US10722529B2, “Modulation of NAD+ metabolic pathways for treatment of disease” (Temple University—Of The Commonwealth System of Higher …, priority 2015, dated 2020).
“Also recorded” adds a separate entry of the source.

Columns and labels:
IDO = settings: cited from earlier work
human monocytes = experiment: CD16 expression in human monocytes isolated from donor PBMCs in the presence of M-CSF; format: cell-based; settings: M-CSF treatment, in vitro
Source text: FIG. 12 depicts the flow cytometry gating strategy used to separate two CD16 positive monocyte subsets.
FIG. 14 depicts the mean fluorescent intensity for CD16 expression in human monocytes isolated from donor PBMCs in the presence of M-CSF treatment.

NAD+ = NAD+ concentration in PBMC of rhesus macaques treated with increasing NR over 5 weeks; format: in vivo, rhesus macaque; settings: SIV infected rhesus macaques, increasing concentrations of NR over a 5 week period
Procedure: Peripheral blood mononuclear cells (PBMC) from five seronegative and four seropositive rhesus macaques were lysed and assayed for NAD+ concentration after treatment with increasing concentrations of nicotinamide riboside (NR) over a 5 week period. […] Paired T test and one way ANOVA was performed *P≤0.05; **P≤0.01 n=9.
Experiments were then conducted to examine the effect of nicotinamide riboside treatment on NAD+ levels in SIV infected animals. Peripheral blood mononuclear cells (PBMC) from five seronegative and four seropositive rhesus macaques were lysed and assayed for NAD+ concentration after treatment with increasing concentrations of nicotinamide riboside (NR) over a 5 week period.

CD14+/CD16+ monocytes = experiment: Flow cytometry of CD14/CD16 on PBMC monocytes of NR-treated rhesus macaques; format: in vivo, rhesus macaque; settings: for CD16 expression on CD14+ monocytes (FACS dot plots): five seronegative and four seropositive macaques, before vs after NR
Procedure: (§1) PBMC from five seronegative and four seropositive rhesus macaques were analyzed after treatment with increasing concentrations of nicotinamide riboside (NR) over a 5-week period.
PBMC from five seronegative and four seropositive rhesus macaques were stained with antibodies to CD14 and CD16 and analyzed by flow cytometry after treatment with increasing concentrations of NR over a 5-week period. The mean fluorescence intensity (MFI) and percent frequency (% Freq) of CD16 was determined for each animal. […] One-way ANOVA was performed *P≤0.05; **P≤0.01; ***P≤0.001; n=9.
as §1, with “Experiments were then conducted to examine whether nicotinamide riboside treatment effects CD16 expression on CD14+ monocytes. PBMC” for “PBMC”
Experiments were then conducted to examine the effects of NR treatment on CD14 and CD16 expression. PBMC from five seronegative and four seropositive rhesus macaques were stained with antibodies to CD14 and CD16 and analyzed by flow cytometry after treatment with increasing concentrations of NR over a 5-week period. The mean fluorescence intensity (MFI) and percent frequency (% Freq) of CD16 was determined for each animal.

[1] = tested on: macrophage colony-stimulating factor (M-CSF); experiment: M-CSF in NR treated macaques; format: in vivo, rhesus macaque
Source text: FIG. 11 depicts experimental results showing that macrophage colony-stimulating factor (M-CSF) is reduced in NR treated macaques.

[2] = tested on: kynurenine to tryptophan ratio; experiment: Plasma kynurenine to tryptophan ratio (KTR) in NR-treated rhesus macaques; format: in vivo, rhesus macaque
Procedure: FIG. 8A depicts the KTR in SIV infected animals treated with different concentrations of NR. FIG. 8B depicts the KTR in uninfected animals treated with different concentrations of NR.
(§2) As described herein, an increase in the kynurenine to tryptophan ratios in the SIV macaque model was identified, with a positive correlation with viral load and soluble CD163 in plasma. […] In an effort to modulate the kynurenine pathway, and decrease tryptophan metabolism, a dose escalation study was performed with the NAD salvage pathway precursor, nicotinamide riboside (NR), in SIV infected macaques. […] This monocyte subset has been implicated in the pathogenesis of HIV infection, HAND, as well as other HIV associated comorbidities. […] The regulation of the kynurenine pathway appears to be complex, yet an attractive target for HIV therapeutics. Understanding the mechanism by which HIV modulates the kynurenine pathway could provide new therapeutic targets for the treatment of HIV and HAND.
Experiments were then conducted to examine if kynurenine to tryptophan ratios of SIV infected macaques correlate with sCD163 plasma level, ATP plasma level, and viral load. ELISA kits were used according to the manufacturer's directions to determine plasma concentrations of sCD163, kynurenine and tryptophan. Plasma ATP levels were analyzed using ATPLite assay. It was determined that kynurenine to tryptophan ratios increased in relations to higher viral loads (r=0.4774; p=0.0028) (FIG. 5A). Further, a positive correlation between kynurenine to tryptophan ratio and sCD163 plasma concentration was observed (r=0.473; p=0.0027) (FIG. 5B).

SIV = experiment: Viral load in SIV infected macaques treated with NR (latency reversal); format: in vivo, rhesus macaque
Source text: Four SIV infected macaques were followed over time during chronic infection, two treated with combination anti-retroviral therapy (cART), and two non-treated.

CD4/CD8 ratio = CD4/CD8 ratio in NR dose escalation study in SIV infected macaques; format: in vivo, rhesus macaque; settings: SIV infected animals; highest dose (400 mg/kg)
Procedure: as §2

CD38 = CD38 (Homo sapiens, UniProt P28907); settings: at micromolar concentrations; cited from earlier work
intracellular NAD+ = settings: at micromolar concentrations; cited from earlier work
HIV/AIDS = settings: prior to the advent of cART; cited from earlier work
plasma tryptophan = settings: HIV infected subjects, supplementation; cited from earlier work
[3] = tested on: adipose tissue macrophage infiltration; settings: mice; cited from earlier work
HIV = settings: in vitro and in patients; cited from earlier work
[4] = listed as nicotinamide riboside
[5] = uninfected and SIV infected macaques, before vs after NR over 5 weeks

CD38, sequence (P28907 whole entry, species assumed): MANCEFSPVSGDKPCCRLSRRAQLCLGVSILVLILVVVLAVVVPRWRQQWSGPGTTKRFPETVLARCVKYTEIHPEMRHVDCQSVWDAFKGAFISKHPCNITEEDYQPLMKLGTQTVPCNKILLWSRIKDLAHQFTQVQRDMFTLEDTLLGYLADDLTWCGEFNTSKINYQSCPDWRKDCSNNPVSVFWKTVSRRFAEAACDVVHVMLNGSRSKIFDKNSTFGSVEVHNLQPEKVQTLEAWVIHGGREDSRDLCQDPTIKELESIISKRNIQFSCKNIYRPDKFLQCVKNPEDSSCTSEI

Structure (SMILES): Cn1cc(C[C@H](N)C(=O)O)c2ccccc21 [1-methyl tryptophan]
- effect on tryptophan depletion or alterations in the kynurenine pathway (IDO; SIV/rhesus macaque model, IDO blockade): incapable of affecting
- disturbance in K/T over-time (IDO; infected animals vs controls): increased the disturbance in K/T over-time in infected animals but not in controls

Structure (SMILES): NC(=O)c1ccc[n+]([C@@H]2O[C@H](CO)[C@@H](O)[C@H]2O)c1 [NR, nicotinamide riboside]
- CD16 monocyte subset expression (human monocytes): inhibits CD16 monocyte expression induced by M-CSF; also recorded: reduces CD16 monocyte subset expression
- NAD+ concentration in PBMC (NAD+): significantly increased
- NAD+ concentration in PBMC (NAD+; [4]): increases NAD+ levels
- CD16 expression on CD14+ monocytes (FACS dot plots) (CD14+/CD16+ monocytes): decreased in all animals examined
- CD16 expression on CD14+ monocytes (FACS dot plots) (CD14+/CD16+ monocytes; [4]): significantly decreases
- mean fluorescence intensity (MFI) of CD16 on CD14+/CD16+ monocytes (CD14+/CD16+ monocytes; [5]): significantly reduced; also recorded: significantly higher than after treatment; also recorded: significantly decreases
- percent frequency of CD14+/CD16+ monocytes (% Freq of CD16) (CD14+/CD16+ monocytes; [5]): significantly reduced; also recorded: significantly decreases
- M-CSF level [1]: reduces M-CSF; also recorded: reduced
- kynurenine to tryptophan ratio ([2]; SIV infected animals, 100 mg/kg dose): appeared to increase
- kynurenine to tryptophan ratio (KTR) ([2]; SIV infected animals, different concentrations of NR): decreased; also recorded: decreases KTR
- kynurenine to tryptophan ratio (KTR) ([2]; uninfected (seronegative) animals, relative to pretreatment values): no significant impact
- function as latency reversing agent for SIV infection (SIV; SIV infected rhesus macaques): potential for NR to function as a latency reversing agent; also recorded: may function as a latency reversing agent
- viral load (SIV; four SIV infected macaques, chronic infection, two on cART, two non-treated, all treated with NR): evidence for viral load increase in all animals
- viral load over time (SIV; the animal on cART with the lowest viral load): increase in viral load and then decrease over time
- CD4/CD8 ratio (CD4/CD8 ratio): decrease CD4/CD8 ratio

Structure (SMILES): O=c1cc(-c2ccc(O)cc2)oc2cc(O)cc(O)c12 [apigenin]
- inhibition of CD38 enzyme activity (CD38): inhibit CD38 enzyme activity
- intracellular NAD+ (intracellular NAD+): increase intracellular NAD+

Structure (SMILES): O=C(O)c1cccnc1 [niacin]
- delay of progression of HIV/AIDS (HIV/AIDS): some benefit in delaying the progression of HIV/AIDS

Structure (SMILES): NC(=O)c1cccnc1 [nicotinamide]
- plasma tryptophan levels (plasma tryptophan): increases plasma tryptophan levels

Structure (SMILES): O=c1c(O)c(-c2ccc(O)c(O)c2)oc2cc(O)cc(O)c12 [quercetin]
- inhibition of CD38 enzyme activity (CD38): inhibit CD38 enzyme activity
- SIRT-1 activity [3]: increased SIRT-1 activity
- inflammatory cytokine levels in tissue and sera (TNFα, MCP-1, IL-6) [3]: reduced inflammatory cytokine levels
- obesity associated adipose tissue macrophage infiltration [3]: reduce obesity associated adipose tissue macrophage infiltration
- intracellular NAD+ (intracellular NAD+): increase intracellular NAD+

Structure (SMILES): O=C(CCCCCCC(=O)Nc1ccccc1)NO [vorinostat]
- latency reversal on repeated dosages (HIV): diminishing returns over time
